Data as given in patent publication US10537552B2, “Substituted 5-hydroxyoxindoles and their use as analgesics and fever reducers” (CARAFE DRUG INNOVATION, LLC, priority 2015, dated 2020).
“And” between values parts separate entries of the source, which are not always exact repeats. Equal values may be shown once.

Columns and labels:
[1] = tested on: liver (acute liver toxicity); assay: plasma aminotransferase activity (ALT, AST) after intragastric dosing; type: in vivo, C57BL/6 mice; settings: for AST / ALT: individual mice 1-8; for ALT, Mean / AST, Mean: mean of 8 mice; for hepatotoxicity, overall assessment (ALT, AST, pathohistology): mice, intragastric, summary statement
Method: This example was performed to determine if acute liver toxicity results from oral administration of 5-hydroxy-7-methyloxindole (CaRafe Drug Innovation, LLC) compared to the known acute liver toxicity produced by acetaminophen.
(§1) Acetaminophen was acquired from Sigma-Aldrich Corp. (St. Louis, Mo., USA); 5-hydroxy-7-methyloxindole was provided by CaRafe Drug Innovation, LLC (Norristown, Pa., USA) in the form of a powder. […] Based on the efficacy testing performed at Drexel University, 5-hydroxy-7-methyloxindole was suspended in 6% Tween® 20 reagent with vortexing. This procedure provided a crude suspension, but it precipitated after some time, therefore vortexing was repeated prior to each injection. Acetaminophen was prepared in the same vehicle (6% Tween® 20 reagent) using light magnetic stirring.
Ten-week old male C57BL/6 mice were used in all of the experiments. All protocols were approved before study initiation by the Ethics Committee of University of Zagreb School of Medicine (Zagreb, Croatia) and the study was conducted in accordance with accepted standards of humane animal care.
(§2) In all experiments, mice were fasted overnight and then allocated randomly to receive either acetaminophen or equimolar dose of 5-hydroxy-7-methyloxindole by the intragastric route. Food was returned 4 h after the treatment. The two experimental groups were:
(§3) (a) Lower-dose group: Mice were administered acetaminophen (300 mg/kg) or 5-hydroxy-7-methyloxindole (324 mg/kg). After 7 h, the mice were sacrificed and liver and blood samples were taken for the analysis.
(§4) Seven hours after receiving the second injection, mice were sacrificed and liver and blood samples were taken for analysis.
After collection, the blood samples were centrifuged, and plasma was separated and stored at −80° C. for 24 h. Activities of ALT (alanine transaminase) and of AST (aspartate transaminase) in plasma were determined using standard laboratory techniques in a clinical diagnostic laboratory.

COX1 (h) = target: T1, COX1 (h) (Homo sapiens, UniProt P23219); assay: COX1 enzyme assay; type: biochemical
T1 construct: host or cells: Sf9 cells
Method: The assay was performed according to the procedure described in Glaser, European Journal of Pharmacology, 281:107-111, 1995, which is incorporated by reference. Recombinant enzymes were reconstituted in buffer. The enzyme preparations were preincubated with DMSO vehicle or compounds in DMSO for 5 min at 37° C. and the human recombinant enzyme expressed in Sf9 cells.
An inhibition greater than about 50% represented significant effects of the test compound. An inhibition of about 25% to about 50% was indicative of weak to moderate effects. An inhibition less than about 25% are not considered significant and may be primarily attributable to variability of the signal around the control level.

[2] = tested on: liver (acute liver toxicity); assay: liver histology (pathohistological examination); type: in vivo, C57BL/6 mice
Method: as §2, §3, §4
A portion of the liver lobes of each mouse was fixed in 4% buffered paraformaldehyde, dehydrated in increasing concentrations of ethanol, and embedded in paraffin. Then, sections of tissue were cut to […] thickness using a rotary microtome, stained with hematoxylin and eosin, and then analyzed under a microscope.

[3] = solubility observed when preparing dosing vehicle; type: physicochemical
Method: as §1, with “Based on the efficacy testing performed at Drexel University, 5-hydroxy-7-methyloxindole was suspended in 6% Tween® 20 reagent with vortexing.” left out

[4] = higher-dose protocol: two cumulative injections 2.5 h apart, 7 h after second injection
[5] = lower-dose protocol: acetaminophen 300 mg/kg or 5-hydroxy-7-methyloxindole 324 mg/kg, 7 h
[6] = 5-hydroxy-7-methyloxindole 324 mg/kg intragastric, 7 h

T1 sequence (P23219 24-599): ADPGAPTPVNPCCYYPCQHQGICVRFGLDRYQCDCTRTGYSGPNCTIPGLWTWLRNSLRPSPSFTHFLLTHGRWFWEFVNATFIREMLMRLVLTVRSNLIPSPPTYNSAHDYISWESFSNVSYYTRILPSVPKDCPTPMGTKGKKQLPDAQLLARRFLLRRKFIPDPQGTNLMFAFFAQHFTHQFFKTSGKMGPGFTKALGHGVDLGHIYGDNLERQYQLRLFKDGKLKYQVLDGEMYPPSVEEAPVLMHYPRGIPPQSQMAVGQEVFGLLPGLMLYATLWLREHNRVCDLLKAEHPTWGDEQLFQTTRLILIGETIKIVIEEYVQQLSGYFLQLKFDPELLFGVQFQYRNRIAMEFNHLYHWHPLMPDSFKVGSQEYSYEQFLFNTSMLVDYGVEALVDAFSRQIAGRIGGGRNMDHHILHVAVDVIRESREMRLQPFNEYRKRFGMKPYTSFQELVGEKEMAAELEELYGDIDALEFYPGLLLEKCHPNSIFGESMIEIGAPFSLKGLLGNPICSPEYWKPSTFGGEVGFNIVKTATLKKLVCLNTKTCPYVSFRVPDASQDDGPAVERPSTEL

Cc1cc(O)cc2c1NC(=O)C2 [5-hydroxy-7-methyloxindole, 5-Hydroxy-7-methyloxindole]
ALT and AST levels, in words [1, 4]: normal or only minimally elevated levels of ALT and AST
AST ([1]; 5-hydroxy-7-methyloxindole 324 mg/kg intragastric, 7 h after treatment): 80 U/L (2×) and 60 U/L (2×) and 120 U/L and 330 U/L and 170 U/L and 90 U/L
ALT ([1]; 5-hydroxy-7-methyloxindole 324 mg/kg intragastric, 7 h after treatment, 6% Tween 20): 30 U/L (5×) and 20 U/L and 50 U/L (2×)
AST ([1]; 5-hydroxy-7-methyloxindole 540 mg/kg total (two 270 mg/kg) intragastric, 7 h after second injection): 60 (2×) and 120 (3×) and 100 and 70 and 110
ALT ([1]; 5-hydroxy-7-methyloxindole 540 mg/kg total (two 270 mg/kg, 2.5 h apart) intragastric, 7 h after second injection): 20 (3×) and 30 (3×) and 50 (2×)
ALT and AST levels / liver damage, in words [1, 5]: normal or only minimally elevated
ALT, Mean [1, 6]: 34 U/L
AST, Mean [1, 6]: 124 U/L
AST, Mean ([1]; 5-hydroxy-7-methyloxindole 540 mg/kg total, 7 h after second injection): 95 U/L
ALT, Mean ([1]; 5-hydroxy-7-methyloxindole 540 mg/kg total, 7 h after second injection, in U/L): 31.25
hepatotoxicity, overall assessment (ALT, AST, pathohistology) ([1]; 6% Tween 20): devoid of hepatotoxic effect
hepatotoxicity, overall assessment (ALT, AST, pathohistology) ([1]; 6% Tween 20, listed as 5-Hydroxy-7-methyloxindole): significantly less hepatotoxicity than acetaminophen
binding to COX1 receptor, in words (COX1 (h)): binds minimally, if at all
inhibition at 10 µM (COX1 (h); test concentration 1 × 10^−5 M, human recombinant enzyme expressed in Sf9 cells): -29%
liver injury on pathohistological examination [2, 4]: without visible liver injury
liver injury on pathohistological examination [2, 5]: no visible sign of liver injury
solubility ([3]; general statement): low solubility
solubility in saline ([3]; saline, for dosing): not sufficiently soluble
